A short description of data set [1]: Metabolic stability in rat hepatic microsomes. The settings on record: 1 μM. The method, then:
(§1) This test allows evaluation of the metabolic stability of the compounds of the invention and of the comparative compounds in rats and in man.
(§2) The compounds to be analysed, at a final concentration of 0 and 1 μM, were placed in a suspension containing the pool of microsomes at a final concentration of 0.5 mg/mL in a final volume of 200 μL, in 96-well plates. The test was standardized with phosphate buffer (75 mM, pH 7.4) and with the NADPH regenerating system (MgCl2: 3.3 mM; G6P: 3.3 mM; G6PD: 0.4 U/mL; NADP+: 1.3 mM). […] The samples were incubated at 37° C. in a humidified incubator. At time 0 and after 60 minutes, 100 μL of acetonitrile containing the internal standard (0.2 μM of metoprolol and 0.4 μM of diclofenac) were added to stop the reaction.
(§3) The samples were centrifuged before analysis. The HPLC/MS/MS analysis was performed using an electrospray ion source in positive ionization and SRM (Single Reaction Mode). The chromatographic conditions entail the use of an XDB-C18 column (2.1×50 mm, Agilent) and a gradient from 5% to 91% of acetonitrile in water containing 0.1% formic acid (total runtime equal to 6 minutes); the flow rate was 0.5 ml/minute.
(§4) The areas of the peaks for the test compounds were integrated and the results expressed as the analyte area/internal standard (PAR) area ratio. For each time, two samples were analysed and the mean value calculated. The percentage of the value of remaining compound was calculated as: % unmetabolized compound=100*(mean PARTfinal/mean PART0).

A further data set deals with production of PGE2. Briefly: Inhibition of PGE2 production in IL-1β-stimulated A549 cells (EIA). Particulars: Homo sapiens, IL-1β 1 ng/ml, 22 hours. The data set is classed as cell-based. An excerpt: (§5) This test allows evaluation of the inhibitory capacity on the production of the PGE2 and the selectivity relative to the production of the PGF2α.
(§6) The cell line A549, human pulmonary adenocarcinoma, was used, which is particularly sensitive to stimulation with pro-inflammatory cytokines, for instance IL-1β, and, in response to this stimulation, is particularly active in the production and release of two prostanoids: PGE2 and PGF2α (Thoren S. Jakobsson P-J, 2000).
(§7) The cells were stimulated with IL-1β (1 ng/ml) and simultaneously treated with the test compound for 22 hours in an appropriate culture medium (DMEM—Dulbecco's Modified Eagle's Medium) supplemented with 5% foetal calf serum and L-glutamine (4 mM final) in an incubator at 37° C. and at a CO2 concentration of 5%.
(§8) After the incubation, the amount of PGE2 and PGF2α produced and released into the supernatant were assayed using an EIA kit (produced and sold by Cayman Chemicals, Ann Arbor, Mich., USA).
(§9) The comparative compound used was indomethacin at a concentration of 10 nM (Sigma-Aldrich), a non-steroidal anti-inflammatory drug that inhibits in equal measure both PGE2 and PGF2α.
(§10) The results, expressed as the IC50 values, i.e. as the concentration of compound that inhibits 50% of the production of PGE2 and of PGF2α relative to the cells that have been stimulated, but not treated with the same compound, are given in Table 2. The inactivity or the reduced activity of the compound on the biosynthesis of PGF2α is an indication of selectivity towards the production of PGE2 and thus of selective inhibition of mPGES-1.

A short description of a further data set: in vitro. Particulars: human, Caco-2, pH 7.4. As to the method:
This test allows evaluation of the amount absorbed by the intestinal barrier of the compounds of the invention and of the comparative compounds using the Caco-2 cell line as an in vitro model of intestinal barrier. The permeability test on Caco-2 cells represents an in vitro system approved for predicting and estimating the in vivo intestinal absorption of a drug. When the Caco-2 cells are cultured on a porous filter for about 21 days, they have the capacity to differentiate into enterocytes.
The compounds undergoing the test were diluted from a 10 mM stock solution in HBSS to a final concentration of 10 μM. The system consisted of a confluent cellular monolayer in culture for 21-28 days.
Each compound was tested in triplicate, bidirectionally, at pH 7.4, from the apical to the basolateral compartment (A→B) and from the basolateral to the apical compartment (B→A).
The samples collected at the given time were analysed by HPLC-MS/MS, using an electrospray ion source in positive ionization and SRM (Single Reaction Mode). The chromatographic conditions entailed the use of an XDB-C18 column (2.1×50 mm, Agilent) with a gradient from 5% to 91% of acetonitrile in water containing 0.1% formic acid (total runtime equal to 6.5 minutes) and a flow rate of 0.5 ml/minute. Metoprolol was used as the internal standard.
The concentration data were used to calculate the apparent permeability values (Papp), and the mean and standard deviation of the Papp were calculated.
The flux ratio was calculated as Papp(B→A)/Papp(A→B). The recovery percentage was calculated as: (amount in the receiving compartment+amount in the donor compartment)/nominal amount
The area of the peaks of the test compounds were integrated and the results were expressed as the analyte area/internal standard area ratio and corrected for the dilution factor used during the preparation of the sample. The apparent permeability coefficients were calculated using the following equation: […]
in which: • VA volume in the receiving well (0.25 mL for the test from A→B, 0.075 mL for the test from B→A) • Area area of the membrane surface (0.11 cm^2) • Time total transport time (3600 seconds)

Data set [2] is described as follows: In vivo bioavailability, oral cassette dosing. Particulars: oral 5 mg/kg; for Cmax / Tmax / AUC(0-t): plasma; for AUC(0-t): first seven hours, read-out: AUC0-7. As to the method:
This test allowed evaluation of the in vivo bioavailability of the compounds of the invention, thus making it possible to evaluate and compare the pharmacokinetic profile of the test compounds.
The tests were performed using the cassette method, i.e. by administering orally several products simultaneously to the same animal, at a dose of 5 mg/kg. The products were suspended in methylcellulose (MTC). The treated animals were catheterized for the serial collection of blood samples performed by means of an automatic sampling system. The plasmatic concentrations of the products were measured by HPLC/MS/MS. The profiles of the plasmatic concentrations over time made it possible to evaluate the relative bioavailability of the test products in terms of rate (tmax and Cmax) and […] (AUC). The slope of the curve in the end portion also allowed a comparative evaluation of the rate of elimination of the compounds from the plasma, the slower the rate, the lower the slope. Three animals were treated for each combination of compounds.
The results, expressed as the Cmax, i.e. as the maximum concentration of drug reached in the plasma, Tmax, i.e. the time required to reach the maximum drug concentration in the plasma, and AUC0-7, i.e. the area under the curve of the plasmatic concentrations of drug over time, measured in the first seven hours after administration, are given in Table 5.

For a further data set, the system named is production of PGF2α. Briefly: Inhibition of PGF2α production in IL-1β-stimulated A549 cells (EIA). The format is cell-based. The settings on record: Homo sapiens, IL-1β 1 ng/ml, 22 hours.
Description: as §5, §6, §7, §8, §9, §10

A short description of data set [3]: Metabolic stability in human hepatic microsomes. Particulars: 1 μM. The method, then: as §1, §2, §3, §4
[4] abbreviates: Sprague-Dawley, rat, microsomes, 1 h, pH 7.4.
[5] abbreviates: microsomes 0.5 mg/mL, 60 minutes, 37° C.

Data on ten molecules can be found in US9249097B2, “3-aminocarbazole compound, pharmaceutical composition containing it and preparation method therefor” (AZIENDE CHIM. RIUN. ANG. FRANC. A.C.R.A.F. S.p.A., priority 2008, dated 2016).

The structures appear in SMILES notation.

`CC(C)(O)Cn1c2ccccc2c2cc(NC(=O)c3ccccc3C(F)(F)F)ccc21` [Compound 2, N-[9-(2-hydroxy-2-methylpropyl)-9H-carbazol-3-yl]-2-(trifluoro-methyl)benzamide] gave a melting point of 179 to 181 °C. Besides, the “% unmetabolized compound, Rat” value in data set [1] (setting [4]) is recorded as 68%. Besides, the 50% inhibitory concentration (IC50) with production of PGE2 was determined as 2300 nM. Besides, in the data set “in vitro”, the Papp at 3600 seconds, 10 μM is over 20 ×10⁻⁶ cm/s. Also, in data set [2], the “bioavailability / absorption in words” value is on record as “good bioavailability characteristics”, the Cmax worked out at 984 ng/mL, the Tmax came to 4.3 h and the AUC(0-t) was found to be 5400 ng·h/mL. In the data set on production of PGF2α, this molecule yielded an IC50 of over 100000 nM. In addition, the “% unmetabolized compound, Man” value in data set [3] (human, microsomes, 1 h, pH 7.4) is 82%.

Turning to `CC(C)(O)CCn1c2ccccc2c2cc(NC(=O)c3ccccc3C(F)(F)F)ccc21` [Compound 3, N-[9-(3-hydroxy-3-methylbutyl)-9H-carbazol-3-yl]-2-(trifluoromethyl)benzamide], the melting point is 188 to 189 °C. Further, in data set [1] (setting [4]), the “% unmetabolized compound, Rat” value came to 65%. Moreover, the IC50 with production of PGE2 worked out at 1400 nM. The same molecule registered a Papp at 3600 seconds, 10 μM in the data set “in vitro” of over 20 ×10⁻⁶ cm/s. In data set [2], the “bioavailability / absorption in words” value is listed as “good bioavailability characteristics”, the peak concentration (Cmax) was found to be 457 ng/mL, the Tmax was 1.8 h and the AUC(0-t) is 2670 ng·h/mL. Further, the IC50 in the data set with production of PGF2α is over 100000 nM. Moreover, in data set [3] (human, microsomes, 1 h, pH 7.4), the “% unmetabolized compound, Man” value was 77%.

As to `CC(=O)Cn1c2ccccc2c2cc(NC(=O)c3ccccc3C(F)(F)F)ccc21` [Compound 4, N-[9-(2-oxopropyl)-9H-carbazol-3-yl]-2-(trifluoromethyl)benzamide], the melting point was in the range of 223 to 226 °C. Besides, the “% unmetabolized compound, Rat” value in data set [1] (setting [4]) came out at 58%. The molecule further came in with an IC50 in the data set on production of PGE2 of 5600 nM. This molecule yielded a Papp at 3600 seconds, 10 μM in “in vitro” of over 20 ×10⁻⁶ cm/s. In the data set on production of PGF2α, this molecule showed a half-maximal inhibitory concentration (IC50) of over 100000 nM. Also, in data set [3] (human, microsomes, 1 h, pH 7.4), the “% unmetabolized compound, Man” value is given as 7%.

The molecule `O=C(Nc1ccc2c(c1)c1ccccc1n2CCO)c1ccccc1Cl` [Compound 5, 2-chloro-N-[9-(2-hydroxyethyl)-9H-carbazol-3-yl]benzamide] had a melting point of 168 to 169 °C. Besides, in data set [1] (setting [4]), the “% unmetabolized compound, Rat” value is 63%. In “in vitro”, this molecule gave an apparent permeability (Papp) at 3600 seconds, 10 μM of over 20 ×10⁻⁶ cm/s. For the same molecule, the “% unmetabolized compound, Man” value in data set [3] (human, microsomes, 1 h, pH 7.4) is reported as 76%.

Turning to `CC(C)(O)CCn1c2ccccc2c2cc(NC(=O)c3ccccc3Cl)ccc21` [Compound 6, 2-chloro-N-[9-(3-hydroxy-3-methylbutyl)-9H-carbazol-3-yl]benzamide], the melting point was 120 to 124 °C. For the same molecule, in data set [1] (setting [4]), the “% unmetabolized compound, Rat” value came out at 74%. In the data set with production of PGE2, this molecule yielded an IC50 of 600 nM. In addition, the Papp at 3600 seconds, 10 μM in the data set “in vitro” is over 20 ×10⁻⁶ cm/s. The same molecule registered a half-maximal inhibitory concentration (IC50) with production of PGF2α of over 100000 nM. In data set [3] (human, microsomes, 1 h, pH 7.4), the “% unmetabolized compound, Man” value was found to be 65%.

`C[C@H]1O[C@@H](O[C@H]2[C@@H](O)C[C@H](O[C@H]3[C@@H](O)C[C@H](O[C@H]4CC[C@@]5(C)[C@H](CC[C@@H]6[C@@H]5C[C@@H](O)[C@]5(C)[C@@H](C7=CC(=O)OC7)CC[C@]65O)C4)O[C@@H]3C)O[C@@H]2C)C[C@H](O)[C@@H]1O` [Digoxin, digoxin, reference compound] displayed a Papp at 3600 seconds, 10 μM in “in vitro” of under 2 ×10⁻⁶ cm/s.

With `COc1ccc2c(c1)c(CC(=O)O)c(C)n2C(=O)c1ccc(Cl)cc1` [Indomethacin, indomethacin, reference compound], the IC50 was determined as 5 nM in the data set with production of PGE2 and 3 nM in the data set on production of PGF2α.

As to `CC(C)NCC(O)COc1cccc2ccccc12` (centres unmarked) [Propranolol, propranolol, reference compound], the Papp at 3600 seconds, 10 μM in the data set “in vitro” was over 20 ×10⁻⁶ cm/s.

In the case of `C[C@]12CC[C@H]3[C@@H](CCC4=CC(=O)CC[C@@]43C)[C@@H]1CC[C@@H]2O` [Testosterone, testosterone, reference compound], in data set [1] (setting [5]), the “% unmetabolized compound, Rat” value is given as 0%. Moreover, the “% unmetabolized compound, Man” value in data set [3] (setting [5]) was 27%.

In the case of `CC(=O)CC(c1ccccc1)c1c(O)c2ccccc2oc1=O` (centres unmarked) [Warfarin, warfarin, reference compound], the “% unmetabolized compound, Rat” value in data set [1] (setting [4]) turned out to be 97%. For the same molecule, the “% unmetabolized compound, Man” value in data set [3] (human, microsomes, 1 h, pH 7.4) amounted to 103%.
